From patent publication US20160177324A1, “NOVEL PROTEIN AND GENE RELATED TO FLAVONOID O-METHYLTRANSFERASE (FOMT) AND THEIR USES THEREFORE” (INSTITUTE OF BOTANY, THE CHINESE ACADEMY OF SCIENCES, priority 2013, published 2016) come the findings set out here.

Each structure is given as a SMILES string. Read-outs that look alike come from different tables or passages of the source.

By Km is commonly meant the substrate concentration at which the rate is half of its maximum.

Test [1] has as its system PsFOMT. The experiment in a line: In vitro enzyme assay and kinetics of recombinant PsFOMT with flavonoid substrates. The class given is biochemical, Paeonia suffruticosa cv. 'Gunpohden'. On the set-up: key to Vmax / Kcat × 10 / Kcat/Km / Specific Activity: —: no product detected. To be noted: for Kcat × 10 / Kcat/Km / Specific Activity / Vmax: purified recombinant PsFOMT, 200 μM SAM, 1 mM MgCl2, pH 7.5, 35° C., means (SE) of triplicate assays; for catalytical efficiency of PsFOMT fusion protein for substrate / methylation of substrate by PsFOMT: in the presence of SAM. An excerpt:
Full length FOMTs were amplified by primers SEQ No.7 & 8 in which restriction enzyme NdeI and BamHI site were introduced to the 5'-end and 3'-end, respectively. The DNA fragment of interest was ligated into the […]3 vector, and then the recombinant plasmid was transducted into DH5a. The FOMT cDNAs were sequenced to verify that no mutation occurred. The recombinant plasmid was isolated and digested with Ndel and BamHI. Subsequently, the fragment was ligated to the NdeI and BamHI excised expression vector pMAL-[…] with a MBP tag to yield pMAL-PsFOMT and pMAL-PtFOMT (FIG. 3). The correct construction tested by sequencing was introduced into E. coli strain BL21. E. coli harboring pMAL-PsFOMT and pMAL-PtFOMT were cultivated in 2 mL LB liquid medium containing glucose, supplemented by 100 μg/mL ampicillin until OD600 reached 0.4-0.5. After addition of isopropyl β-D-thiogalactopyranoside (IPTG) to a final concentration of 0.1 mM, the cells were further cultured at 16° C. for 20 h. Harvest the cells by centrifugation and discard the supernatant. The cells were resuspended in column buffer (20 mM Tris-HCl, 200 mM NaCl 1 mM EDTA, 10 mM β-mercaptoethanol, pH 7.4), and disrupted by sonication in an ice-water bath (Lan, T., et al., Extensive functional diversification of the Populus glutathione S-transferase supergene family. Plant Cell, 2009. 21(12): p. 3749-3766.). In each case, the homogenate was then subjected to centrifugation at 10,000 g for 10 min at 4° C. The resultant particulate material and a small portion of the supernatant were analyzed by SDS-PAGE. The rest of the supernatant was loaded onto an amylose resin column (NEB) that had been pre-equilibrated with column buffer. The overexpressed fusion protein bound to the column was eluted with column buffer plus 10 mM maltose. The concentration of purified fusion protein was detected by UV absorbance at 280 nm. As a control, BL21 cells transformed with an empty pMAL-[…] vector were assayed. The purified protein was stored at -80° C. mixed with 10% glycerol. The reaction system was according to Hugueney et al. with some modification (Hugueney, P., et al., A novel cation-dependent O-methyltransferase involved in anthocyanin methylation in grapevine. Plant Physiology, 2009. 150(4): p. 2057-2070.). Purified recombinant FOMT (2 μg) was assayed in a final volume of 200 μL containing 200 μM SAM, 1 mM MgCl2, 14 mM β-mercaptoethanol, 100 mM Tris, pH 7.5, and 20 μM flavonoid substrates. Incubation was performed at 35° C. and stopped with 200 μL methanol containing 2% formic acid. […] Reaction product was analyzed by a Dionex HPLC system (Sunnyvale, Calif.), equipped with a P680 HPLC pump, an UltiMate 3000 autosampler, a TCC-100 thermostated column compartment and a Dionex PDA100 photodiode array detector. The analytical column was C18 column of ODS 80Ts QA (150 mm×4.6 mm, 5 μm i.d., Tosoh, Tokyo) protected with a C18 guard cartridge (Shanghai ANPEL Scientific Instrument, Shanghai). The following solvent and gradient were used: A, 10% aqueous formic acid; B, methanol; constant gradient from 10 to 36% B within 15 min and back to 10% B in 3 min; the flow rate was 0.8 mL min^-1; Column temperature was maintained at 35° C.; 20 μL of analyte was injected. Chromatograms were obtained at 525 nm for anthocyanins and 350 nm for other flavonoids, and photodiode array spectra were recorded from 200 to 800 nm. Km and Vmax values were calculated from Lineweaver-Burk plots.

Test [2] relates to PsFOMT. The description is as above. It is filed as biochemical, Paeonia suffruticosa cv. 'Gunpohden'. Set-up: key: —: no product detected. The conditions noted are these: purified recombinant PsFOMT, 200 μM SAM, 1 mM MgCl2, pH 7.5, 35° C., substrate 5 to 200 μM, means (SE) of triplicate assays.
The test system of test [3] is PtFOMT. The experiment in a line: In vitro enzymatic activity of recombinant PtFOMT with potential substrates. The class given is biochemical, Paeonia tenuifolia. To be noted: purified recombinant PtFOMT; means ± SE of triplicate assays. An excerpt: Full length FOMTs were amplified by primers SEQ No.7 & 8 in which restriction enzyme NdeI and BamHI site were introduced to the 5′-end and 3′-end, respectively. The DNA fragment of interest was ligated into the pEASY-T3 vector, and then the recombinant plasmid was transducted into DH5a. The FOMT cDNAs were sequenced to verify that no mutation occurred. The recombinant plasmid was isolated and digested with Ndel and BamHI. Subsequently, the fragment was ligated to the NdeI and BamHI excised expression vector pMAL-c5X with a MBP tag to yield pMAL-PsFOMT and pMAL-PtFOMT (FIG. 3). The correct construction tested by sequencing was introduced into E. coli strain BL21. E. coli harboring pMAL-PsFOMT and pMAL-PtFOMT were cultivated in 2 mL LB liquid medium containing glucose, supplemented by 100 μg/mL ampicillin until OD600 reached 0.4-0.5. After addition of isopropyl β-D-thiogalactopyranoside (IPTG) to a final concentration of 0.1 mM, the cells were further cultured at 16° C. for 20 h. Harvest the cells by centrifugation and discard the supernatant. The cells were resuspended in column buffer (20 mM Tris-HCl, 200 mM NaCl 1 mM EDTA, 10 mM β-mercaptoethanol, pH 7.4), and disrupted by sonication in an ice-water bath (Lan, T., et al., Extensive functional diversification of the Populus glutathione S-transferase supergene family. Plant Cell, 2009. 21(12): p. 3749-3766.). In each case, the homogenate was then subjected to centrifugation at 10,000 g for 10 min at 4° C. The resultant particulate material and a small portion of the supernatant were analyzed by SDS-PAGE. The rest of the supernatant was loaded onto an amylose resin column (NEB) that had been pre-equilibrated with column buffer. The overexpressed fusion protein bound to the column was eluted with column buffer plus 10 mM maltose. The concentration of purified fusion protein was detected by UV absorbance at 280 nm. As a control, BL21 cells transformed with an empty pMAL-c5X vector were assayed. The purified protein was stored at −80° C. mixed with 10% glycerol.
The reaction system was according to Hugueney et al. with some modification (Hugueney, P., et al., A novel cation-dependent O-methyltransferase involved in anthocyanin methylation in grapevine. Plant Physiology, 2009. 150(4): p. 2057-2070.). Purified recombinant FOMT (2 μg) was assayed in a final volume of 200 μL containing 200 μM SAM, 1 mM MgCl2, 14 mM β-mercaptoethanol, 100 mM Tris, pH 7.5, and 20 μM flavonoid substrates. Incubation was performed at 35° C. and stopped with 200 μL methanol containing 2% formic acid. For enzyme kinetic studies, purified FOMT was incubated based on the above condition with the exception that a range of substrate concentrations from 5 to 200 μM were used for Km determination. Reaction product was analyzed by a Dionex HPLC system (Sunnyvale, Calif.), equipped with a P680 HPLC pump, an UltiMate 3000 autosampler, a TCC-100 thermostated column compartment and a Dionex PDA100 photodiode array detector. The analytical column was C18 column of ODS 80Ts QA (150 mm×4.6 mm, 5 μm i.d., Tosoh, Tokyo) protected with a C18 guard cartridge (Shanghai ANPEL Scientific Instrument, Shanghai). […] Chromatograms were obtained at 525 nm for anthocyanins and 350 nm for other flavonoids, and photodiode array spectra were recorded from 200 to 800 nm. Km and Vmax values were calculated from Lineweaver-Burk plots.

For the compound `O=C(O)/C=C/c1ccc(O)c(O)c1` [Caffeic acid], in test [1], the “Kcat × 10” value was “—”, the Kcat/Km result is listed as “—”, the “Specific Activity” value is recorded as “—” and the Vmax entry is given as “—”. The Michaelis constant (Km) result in test [2] was “—”.
In the case of `OC[C@H]1O[C@@H](Oc2cc3c(O[C@@H]4O[C@H](CO)[C@@H](O)[C@H](O)[C@H]4O)cc(O)cc3[o+]c2-c2ccc(O)c(O)c2)[C@H](O)[C@@H](O)[C@@H]1O` [Cyanidin 3,5-di-O-glucoside], in test [1], the “catalytical efficiency of PsFOMT fusion protein for substrate” value is recorded as “high catalytical efficiency”, the “Kcat × 10” value is given as 127.70 (1.05) s^−1, the “Specific Activity” value is given as 1788 (15) pkat mg^−1 and the Vmax was 17.88 (0.25) nM s^−1. Besides, the Specific Activity in test [3] worked out at 29.60 ± 3.47 pkat mg^−1. The Km in test [2] (read-out: Km) came out at 1.06 µM.
For `OC[C@H]1O[C@@H](Oc2cc3c(O)cc(O)cc3[o+]c2-c2ccc(O)c(O)c2)[C@H](O)[C@@H](O)[C@H]1O` [Cyanidin 3-O-galactoside], in test [1], the “methylation of substrate by PsFOMT” value is listed as “can be methylated”, the “Kcat × 10” value is recorded as 217.90 (36.48) s^−1, the “Specific Activity” value is 3138 (525) pkat mg^−1 and the Vmax is on record as 39.22 (6.57) nM s^−1. Moreover, the Km in test [2] (read-out: Km) was 31.7 µM.
Take `OC[C@H]1O[C@@H](Oc2cc3c(O)cc(O)cc3[o+]c2-c2ccc(O)c(O)c2)[C@H](O)[C@@H](O)[C@@H]1O` [Cyanidin 3-O-glucoside]: in test [1], the “catalytical efficiency of PsFOMT fusion protein for substrate” value is on record as “high catalytical efficiency”, the “Kcat × 10” value is listed as 161.99 (0.73) s^−1, the “Specific Activity” value is recorded as 2314 (11) pkat mg^−1 and the Vmax is reported as 11.57 (0.05) nM s^−1. For the same compound, the Specific Activity in test [3] came out at 37.98 ± 1.05 pkat mg^−1. Moreover, in test [2] (read-out: Km), the Km was determined as 1.76 µM.
On to `OC[C@H]1O[C@@H](Oc2cc3c(O)cc(O)cc3[o+]c2-c2cc(O)c(O)c(O)c2)[C@H](O)[C@@H](O)[C@@H]1O` [Delphinidin 3-O-glucoside], for which, in test [1], the “methylation of substrate by PsFOMT” value was “sequentially methylate 3′- and 5′-OH at B ring”; the “Kcat × 10” value is 94.72 (1.49) s^−1; the “Specific Activity” value was 1364 (21) pkat mg^−1; the Vmax is 17.05 (0.27) nM s^−1. In addition, in test [3], the Specific Activity was found to be 21.50 ± 0.10 pkat mg^−1. Besides, in test [2] (read-out: Km), the Michaelis-Menten constant (Km) was 4.11 µM.
As to `O=c1c(O)c(-c2ccc(O)cc2)oc2cc(O)cc(O)c12` [Kaempferol], in test [1], the “Kcat × 10” value is given as “—”, the Kcat/Km result is reported as “—”, the “Specific Activity” value is reported as “—” and the Vmax entry is listed as “—”. In addition, in test [2], the Michaelis constant (Km) result is reported as “—”.
Turning to `O=c1cc(-c2ccc(O)c(O)c2)oc2cc(O)cc(O)c12` [Luteolin], in test [1], the “Kcat × 10” value is listed as “—”, the Kcat/Km result was “—”, the “Specific Activity” value is reported as “—” and the Vmax result is “—”. In test [2], the Michaelis constant (Km) result is “—”.
With `O=C1C[C@@H](c2ccc(O)cc2)Oc2cc(O)cc(O)c21` [Naringenin], in test [1], the “Kcat × 10” value is reported as “—”, the Kcat/Km result was “—”, the “Specific Activity” value is on record as “—” and the Vmax result is “—”. In addition, the Km result in test [2] is reported as “—”.
For the compound `OC[C@H]1O[C@@H](Oc2cc3c(O)cc(O)cc3[o+]c2-c2ccc(O)cc2)[C@H](O)[C@@H](O)[C@@H]1O` [Pelargonidin 3-O-glucoside], in test [1], the “Kcat × 10” value is reported as “—”, the Kcat/Km result was “—”, the “Specific Activity” value is “—” and the Vmax entry is given as “—”. Further, in test [2], the Michaelis constant (Km) entry is “—”.
In the case of `C[C@@H]1O[C@@H](OC[C@H]2O[C@@H](Oc3c(-c4ccc(O)c(O)c4)oc4cc(O)cc(O)c4c3=O)[C@H](O)[C@@H](O)[C@@H]2O)[C@H](O)[C@H](O)[C@H]1O` [Quercetin 3-O-rutinoside], in test [1], the “methylation of substrate by PsFOMT” value was “can be methylated”, the “Kcat × 10” value was 192.11 (4.41) s^−1, the “Specific Activity” value is recorded as 2744 (135) pkat mg^−1 and the Vmax is on record as 27.44 (1.63) nM s^−1. The Specific Activity in test [3] worked out at 30.20 ± 0.24 pkat mg^−1. In addition, in test [2] (read-out: Km), the Km came out at 12.3 µM.
Turning to `O=c1c(O)c(-c2ccc(O)c(O)c2)oc2cc(O)cc(O)c12` [Quercetin], in test [1], the “methylation of substrate by PsFOMT” value is on record as “can be methylated”, the “Kcat × 10” value is reported as 9.83 (0.12) s^−1, the “Specific Activity” value is given as 142 (2) pkat mg^−1 and the Vmax was 1.77 (0.02) nM s^−1. For the same compound, the Specific Activity in test [3] stood at 17.58 ± 0.57 pkat mg^−1. In test [2] (read-out: Km), the Michaelis constant (Km) was determined as 4.33 µM.
